Laboratory results reported in patent US20260234180A1, “AMINO ACID DERIVATIVE, PREPARATION METHOD THEREFOR, AND PHARMACEUTICAL COMPOSITION FOR TREATING HEPATITIS, COMPRISING SAME” (priority 2021, published 2026).

Legend:
HBV virus = assay: HBV infection of HepG2-NTCP cells, HBeAg ELISA analysis; assay type: cell-based, hepatitis B virus (HBV); conditions: 20 μM, O.D. 450 nm
Description: Specifically, the HepG2-NTCP cell line was cultured on a 6-well plate, incubation was performed overnight, HBV inhibitors were treated at a concentration of 20 μM, and the positive control Myrcludex-B (MyrB) was treated at a concentration of 200 nM, followed by culture for 24 hours. After HBV infection into the cells to make HBV 3000 genome equivalent per ml/cell (Geq/cell), the cell culture medium was replaced (medium changing, MC) a day after the viral infection to remove the virus unattached to cell membranes. In order to measure an amount of virus that entered the cell, medium changing (MC) was performed once more 4 days after viral infection. 2 days after replacement, HBeAg ELISA analysis was performed using a supernatant, and Southern blot analysis was performed with cell pellets.
HBeAg ELISA analysis was performed using an HBeAg ELISA kit (sanbio, Wantai HBeAg ELISA, cat #WB-2496) for the supernatant obtained by the method in Experimental Example 4-1.
First, a negative control group (Mock), positive control group (MyrB), and samples according to the present disclosure were loaded, by 50 μl each to be triplicate, onto a 96-well plate coated with capture Ab. In this case, Example 1 (LCA-ILE), Example 44 (LCA-Val), Example 52 (LCA-Tyr), Example 51 (LCA-Ser), Example 55 (LCA-Glu), Example 2 (UDCA-Ile), Example 3 (UDCA-Val), Example 25 (LCA-Val-Trp), Example 10 (DCA-Ile), Comparative Example 1 (LCA), and Comparative Example 2 (UDCA) were used as the sample.
The HRP-conjugated detection antibody was loaded into each well by 50 μl, followed by a reaction at 37° C. for 30 minutes. Washing buffer (1×PBS, 0.5% Tween20) was added by 200 μl, and washing was performed 5 times. 50 μl of chromogen solution A and 50 μl of chromogen solution B were added to each well, and a reaction was carried out in the darkness at 37° C. for 15 minutes. The stop solution was added to each well by 50 μl each to stop the reaction, and the amount of HBeAg was measured by measuring the absorbance (optical density, O.D.) level in the 450 nm wavelength band.

Jurkat cell line = assay: Cytotoxicity, WST-1 cell viability; assay type: cell-based, human; conditions: 0.2 μM~50 μM, 24 and 48 hours
Description: For Example 1 (LCA-Ile), Example 44 (LCA-Val), Example 2 (UDCA-Ile), and Example 3 (UDCA-Val), cytotoxicity was evaluated in the Jurkat cell line, a human T lymphocyte-derived cell line. Jurkat cell lines were seeded at a density of 5×10^4 on a 96 well plate for overnight incubation, and each compound was treated at a concentration of 0.2 μM~50 μM for 24 or 48 hours. WST-1, a reagent for measuring cell viability, was loaded at 10 μl/well, and absorbance was measured at 440 nm using a microplate reader 2 hours later. The mean value of negative control (NC) group treated with only DMSO was calculated as 1 and the cytotoxicity for the remaining experimental group was evaluated.

[1] = target: T1, NTCP, HepG2-hNTCP-C4 cell line (Homo sapiens, UniProt Q14973); assay: Inhibition of binding of fluorescent-labeled PreS1 peptide, fluorescence imaging; conditions: 10 M and 50 PM; compared to the HBV-induced group solely treated with PreS1
T1 construct: expressed in transfected cells; host or cells: HepG2-hNTCP-C4 (HepG2 cells expressing human NTCP)
T1 sequence (Q14973 1-349): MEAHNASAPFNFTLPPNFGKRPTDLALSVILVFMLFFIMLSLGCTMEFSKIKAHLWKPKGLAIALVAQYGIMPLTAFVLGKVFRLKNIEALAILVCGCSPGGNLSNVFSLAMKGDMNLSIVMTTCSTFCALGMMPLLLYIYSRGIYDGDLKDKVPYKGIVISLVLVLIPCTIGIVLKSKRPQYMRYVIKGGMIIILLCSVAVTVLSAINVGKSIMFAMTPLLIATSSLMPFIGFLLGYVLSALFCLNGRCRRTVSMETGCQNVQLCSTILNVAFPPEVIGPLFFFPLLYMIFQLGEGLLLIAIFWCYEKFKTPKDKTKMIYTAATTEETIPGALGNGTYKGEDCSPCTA
Description: Specifically, after placing a cover slip coated with fibronectin on a 24 well plate, a HepG2-hNTCP-C4 cell line, which is a cell line expressing NTCP, was seeded at a density of 1×10^5, followed by incubation overnight. Thereafter, 20 nM PreS1 and the compounds in Examples 1, 8, 9, and 44 were treated by diluting in culture media at 4° C. at a concentration of 50 μM, respectively. After 2 hours, the media were suctioned, followed by washing twice with 4° C. PBS, fixation with 4% paraformaldehyde for 20 minutes, and washing twice with 4° C. PBS. Thereafter, 300 nM 4′,6-diamidino-2-phenylindole (DAPI) was treated to stain the nucleus for 20 minutes, and then washing was followed once with distilled water (DW) and twice with 4° C. PBS. Subsequently, 10 μl of mounting media was loaded onto a slide glass, and a cover slip was placed thereon for observation under a fluorescence microscope.
Green fluorescence may be observed when PreS1 binds to a cell line expressing NTCP by FITC conjugated to PreS1.

CC[C@@H](C)[C@H](NC(=O)CC[C@@H](C)[C@H]1CC[C@H]2[C@@H]3CC[C@@H]4C[C@H](O)CC[C@]4(C)[C@H]3CC[C@]12C)C(=O)O [Example 1, (2S,3R)-2-((R)-4-((3R,5R,8R,9S,10S,13R,14S,17R)-3-hydroxy-10,13-dimethyl-hexadecahydro-1H-cyclopenta[a]phenanthren-17-yl)pentanamido)-3-methylpentanoic acid]
HBeAg absorbance level relative to Comparative Example 1 (LCA) and Comparative Example 2 (UDCA) (HBV virus): lower
HBeAg absorbance level relative to the negative control group (Mock) (HBV virus): relatively lower
cytotoxicity (Jurkat cell line): barely observed
binding between PreS1 and NTCP (green fluorescence imaging) [1]: inhibited in a concentration dependent manner

CC(C)[C@H](NC(=O)CC[C@@H](C)[C@H]1CC[C@H]2[C@@H]3CC[C@@H]4C[C@H](O)CC[C@]4(C)[C@H]3CC[C@]12C)C(=O)O [Example 44, (S)-2-((R)-4-((3R,5R,8R,9S,10S,13R,14S,17R)-3-hydroxy-10,13-dimethyl-hexadecahydro-1H-cyclopenta[a]phenanthren-17-yl)pentanamido)-3-methylbutanoic acid]
HBeAg absorbance level relative to Comparative Example 1 (LCA) and Comparative Example 2 (UDCA) (HBV virus): lower
HBeAg absorbance level relative to the negative control group (Mock) (HBV virus): relatively lower
cytotoxicity (Jurkat cell line): barely observed
binding between PreS1 and NTCP (green fluorescence imaging) [1]: inhibited in a concentration dependent manner

CC(C)[C@H](NC(=O)CC[C@@H](C)[C@H]1CC[C@H]2[C@@H]3[C@@H](O)C[C@@H]4C[C@H](O)CC[C@]4(C)[C@H]3CC[C@]12C)C(=O)O [Example 3, (S)-2-((R)-4-((3R,5S,7S,8R,9S,10S,13R,14S,17R)-3,7-dihydroxy-10,13-dimethyl-hexadecahydro-1H-cyclopenta[a]phenanthren-17-yl)pentanamido)-3-methylbutanoic acid]
HBeAg absorbance level relative to Comparative Example 1 (LCA) and Comparative Example 2 (UDCA) (HBV virus): lower
HBeAg absorbance level relative to the negative control group (Mock) (HBV virus): relatively lower
cytotoxicity (Jurkat cell line): barely observed
binding between PreS1 and NTCP (green fluorescence imaging) [1]: inhibited in a concentration dependent manner

CC[C@@H](C)[C@H](NC(=O)CC[C@@H](C)[C@H]1CC[C@H]2[C@@H]3[C@@H](O)C[C@@H]4C[C@H](O)CC[C@]4(C)[C@H]3CC[C@]12C)C(=O)O [Example 2, (2S,3R)-2-((R)-4-((3R,5S,7S,8R,9S,10S,13R,14S,17R)-3,7-dihydroxy-10,13-dimethyl-hexadecahydro-1H-cyclopenta[a]phenanthren-17-yl)pentanamido)-3-methylpentanoic acid]
HBeAg absorbance level relative to Comparative Example 1 (LCA) and Comparative Example 2 (UDCA) (HBV virus): lower
HBeAg absorbance level relative to the negative control group (Mock) (HBV virus): relatively lower
cytotoxicity (Jurkat cell line): barely observed
binding between PreS1 and NTCP (green fluorescence imaging) [1]: inhibited in a concentration dependent manner

CC[C@@H](C)[C@H](NC(=O)CC[C@@H](C)[C@H]1CC[C@H]2[C@@H]3CC[C@@H]4C[C@H](O)CC[C@]4(C)[C@H]3C[C@H](O)[C@]12C)C(=O)O [Example 10, (2S,3R)-2-((R)-4-((3R,5R,8R,9S,10S,12S,13R,14S,17R)-3,12-dihydroxy-10,13-dimethyl-hexadecahydro-1H-cyclopenta[a]phenanthren-17-yl)pentanamido)-3-methylpentanoic acid]
HBeAg absorbance level relative to Comparative Example 1 (LCA) and Comparative Example 2 (UDCA) (HBV virus): lower
HBeAg absorbance level relative to the negative control group (Mock) (HBV virus): relatively lower
